From EP4289427A1, “DIHYDRO[1,8]NAPHTHYRIDIN-7-ONE AND PYRIDO[3,2-B][1,4]OXAZIN-3-ONE FOR USE IN TREATING CANCER, AND METASTASES IN PARTICULAR” (Anagenesis Biotechnologies, priority 2022, dated 2023)

Columns and labels:
4T1 cells = assay: Cytotoxicity assay (CellTiter-Glo 2.0) on 4T1 cells; format: cell-based, Mouse; conditions: incubation 2 days; for IC50: Mus musculus, 48 h
Method: (§1) Cytotoxicity assays consist in treating cells with compounds and assessing remaining viability after a defined incubation time, depending on the cell line. CellTiter-Glo® 2.0 reagent allows viability measurement by quantification of ATP present, which is an indicator of metabolically active cells.
(§2) The cancer cell lines were cultivated in their respective growth medium (see tables 6a and 6b). On day 0 of the cytotoxicity assay, the cells were harvested and seeded into a 384-well plate at a defined density in their respective growth medium (see tables 6a and 6b). Compounds to be tested were then added onto the cells and incubated for a defined duration (see tables 6a and 6b). Following incubation, CellTiter-Glo® 2.0 reagent (cat.no. G9241 from Promega) was added into the wells (vol/vol, according to the manufacturer's recommendations), plates were gently shaken and incubated for 10 minutes in the dark at room temperature. Bioluminescence was then measured with a multimode plate reader (Victor Nivo from Perkin Elmer), and cell viability and relative IC50 were determined. Table 6a: Cancer cell characteristics, culture and cytotoxic assay conditions

EoL-1 cells = assay: Cytotoxicity assay (CellTiter-Glo 2.0) on EoL-1 cells; format: cell-based, Human; conditions: incubation 1 day; for IC50: Homo sapiens, EOL1, 24 h
Method: as §1, §2

RD cells = assay: Cytotoxicity assay (CellTiter-Glo 2.0) on RD cells; format: cell-based, Human; conditions: for IC50: Homo sapiens
Method: as §1, §2

MDA-MB-231 cells = assay: Cytotoxicity assay (CellTiter-Glo 2.0) on MDA-MB-231 cells; format: cell-based, Human; conditions: incubation 3 days; for IC50: Homo sapiens, 72 h
Method: as §1, §2

HUVECs = assay: Tube formation assay (anti-angiogenic activity); format: cell-based, human; conditions: incubation 16 to 18 hours; for IC50: Homo sapiens, HUVEC
Source text: Angiogenesis is a phenomenon that includes different processes, such as endothelial cell proliferation, migration and differentiation that lead to the formation of new blood vessels. Tube formation assay is a standard in vitro test to assess angiogenesis: briefly, human Umbilical Vein Endothelial cells (hereafter "HUVECs") cultivated on a gelled basement matrix spontaneously proliferate, migrate and differentiate to form tube-like structures, that appear elongated and that connect to each other to form a network.
HUVECs were cultivated in Endothelial Cell Growth Medium (cat.no. C-22010 from Promocell) supplemented with 1% PenStrep (hereafter "HUVEC medium"). On day 0, HUVECs were harvested and transferred into a 384-well plate precoated with 10 µl/well of Cultrex UltiMatrix Reduced Growth factor basement membrane (cat.no. BME001-10 from BioTechne), according to the manufacturer's instructions, at a density of 5000 cells/well in HUVEC medium. Compounds to be tested were then added onto the cells and incubated for 16 to 18 hours at 37°C. After this incubation period, the cells were stained with calcein-AM (cat.no. 10462052 from Fisher Scientific) and pictures were acquired using a confocal fluorescent microscope (IXM from Molecular Devices). Tube formation was measured with MetaXpress® Software.

| Compound | IC50 (4T1 cells) [µM] | Cytotoxicity (4T1 cells) | IC50 (EoL-1 cells) [µM] | Cytotoxicity (EoL-1 cells) | Cytotoxicity (RD cells; 2 day-treatment) | Cytotoxicity (RD cells; 4 day-treatment) | IC50 (RD cells; 48 h, 2 day-treatment) [µM] | IC50 (RD cells; 96 h, 4 day-treatment) [µM] | IC50 (MDA-MB-231 cells) [µM] | Cytotoxicity (MDA-MB-231 cells) | IC50 (HUVECs) [µM] | Angiogenesis inhibition (HUVECs) |
| --- | --- | --- | --- | --- | --- | --- | --- | --- | --- | --- | --- | --- |
| CSc1cc(Oc2ccnc3c2CCC(=O)N3)ccc1NC(=O)Nc1cc(C(C)(C)C)no1 [Compound 008, 1-(3-(tert-butyl)isoxazol-5-yl)-3-(2-(methylthio)-4-((7-oxo-5,6,7,8-tetrahydro-1,8-naphthyridin-4-yl)oxy)phenyl)urea] | < 1 | +++ (cytotoxicity ≥ 85%) | 0.001 to 0.01 | +++ (cytotoxicity ≥ 85%) | ++ (50% ≤ cytotoxicity < 85%) | +++ (cytotoxicity ≥ 85%) | < 1 | < 1 | < 1 | ++ (50% ≤ cytotoxicity < 85%) | < 0.1 | +++ (angiogenesis inhibition ≥ 80%) |
| CC(C)(C)c1cc(NC(=O)Nc2ccc(Oc3ccnc4c3CCC(=O)N4)c3ccccc23)on1 [Compound 009, 1-(3-(tert-butyl)isoxazol-5-yl)-3-(4-((7-oxo-5,6,7,8-tetrahydro-1,8-naphthyridin-4-yl)oxy)naphthalen-1-yl)urea] | < 1 | +++ (cytotoxicity ≥ 85%) | 0.001 to 0.01 | +++ (cytotoxicity ≥ 85%) | ++ (50% ≤ cytotoxicity < 85%) | ++ (50% ≤ cytotoxicity < 85%) | 1 to 5 | 1 to 5 | < 1 | ++ (50% ≤ cytotoxicity < 85%) | < 0.1 | +++ (angiogenesis inhibition ≥ 80%) |
| Cc1ccc(-n2nc(C(C)(C)C)cc2NC(=O)Nc2ccc(Oc3ccnc4c3CCC(=O)N4)cc2C(F)(F)F)cc1 [Compound 010, 1-[5-tert-butyl-2-(p-tolyl)pyrazol-3-yl]-3-[4-[(7-oxo-6,8-dihydro-5H-1,8-naphthyridin-4-yl)oxy]-2-(trifluoromethyl)phenyl]urea] | 1 to 5 | +++ (cytotoxicity ≥ 85%) | 0.01 to 0.1 | ++ (50% ≤ cytotoxicity < 85%) | ++ (50% ≤ cytotoxicity < 85%) | ++ (50% ≤ cytotoxicity < 85%) | 5 to 10 | 5 to 10 | 1 to 5 | ++ (50% ≤ cytotoxicity < 85%) | 0.1 to 0.5 | +++ (angiogenesis inhibition ≥ 80%) |
| Cc1ccc(-n2nc(C(C)(C)C)cc2NC(=O)Nc2ccc(Oc3ccnc4c3OCC(=O)N4)cc2C(F)(F)F)cc1 [Compound 011, 1-[5-tert-butyl-2-(p-tolyl)pyrazol-3-yl]-3-[4-[(3-oxo-4H-pyrido[3,2-b][1,4]oxazin-8-yl)oxy]-2-(trifluoromethyl)phenyl]urea] | 1 to 5 | +++ (cytotoxicity ≥ 85%) | 0.01 to 0.1 | ++ (50% ≤ cytotoxicity < 85%) | + (20 % ≤ cytotoxicity < 50%) | + (20 % ≤ cytotoxicity < 50%) | 5 to 10 | ≥ 10 | 1 to 5 | ++ (50% ≤ cytotoxicity < 85%) | 0.1 to 0.5 | +++ (angiogenesis inhibition ≥ 80%) |
| CSc1cc(Oc2ccnc3c2OCC(=O)N3)ccc1NC(=O)Nc1cc(C(C)(C)C)nn1-c1cccc(F)c1 [Compound 012, 1-[5-tert-butyl-2-(3-fluorophenyl)pyrazol-3-yl]-3-[2-methylsulfanyl-4-[(3-oxo-4H-pyrido[3,2-b][1,4]oxazin-8-yl)oxy]phenyl]urea] | 1 to 5 | +++ (cytotoxicity ≥ 85%) | 0.001 to 0.01 | ++ (50% ≤ cytotoxicity < 85%) | ++ (50% ≤ cytotoxicity < 85%) | ++ (50% ≤ cytotoxicity < 85%) | 1 to 5 | 5 to 10 | 1 to 5 | ++ (50% ≤ cytotoxicity < 85%) | < 0.1 | +++ (angiogenesis inhibition ≥ 80%) |
| CC(C)(C)c1cc(NC(=O)Nc2ccc(Oc3ccnc4c3OCC(=O)N4)cc2C(F)(F)F)n(-c2cccc(F)c2)n1 [Compound 014, 1-[5-tert-butyl-2-(3-fluorophenyl)pyrazol-3-yl]-3-[4-[(3-oxo-4H-pyrido[3,2-b][1,4]oxazin-8-yl)oxy]-2-(trifluoromethyl)phenyl]urea] | 1 to 5 | +++ (cytotoxicity ≥ 85%) | 0.01 to 0.1 | ++ (50% ≤ cytotoxicity < 85%) | + (20 % ≤ cytotoxicity < 50%) | + (20 % ≤ cytotoxicity < 50%) | 5 to 10 | ≥ 10 | 1 to 5 | + (20 % ≤ cytotoxicity < 50%) | 0.1 to 0.5 | +++ (angiogenesis inhibition ≥ 80%) |
| CC(C)(C)c1cc(NC(=O)Nc2ccc(Oc3ccnc4c3CCC(=O)N4)cc2C(F)(F)F)n(-c2cccc(F)c2)n1 [Compound 015, 1-[5-tert-butyl-2-(3-fluorophenyl)pyrazol-3-yl]-3-[4-[(7-oxo-6,8-dihydro-5H-1,8-naphthyridin-4-yl)oxy]-2-(trifluoromethyl)phenyl]urea] | < 1 | +++ (cytotoxicity ≥ 85%) | 0.01 to 0.1 | ++ (50% ≤ cytotoxicity < 85%) | ++ (50% ≤ cytotoxicity < 85%) | ++ (50% ≤ cytotoxicity < 85%) | 5 to 10 | 1 to 5 | 1 to 5 | ++ (50% ≤ cytotoxicity < 85%) | < 0.1 | +++ (angiogenesis inhibition ≥ 80%) |
| CSc1cc(Oc2ccnc3c2OCC(=O)N3)ccc1NC(=O)Nc1cc(C(C)(C)C)nn1-c1ccc(C)nc1 [Compound 019, 1-[5-tert-butyl-2-(6-methyl-3-pyridyl)pyrazol-3-yl]-3-[2-methylsulfanyl-4-[(3-oxo-4H-pyrido[3,2-b][1,4]oxazin-8-yl)oxy]phenyl]urea] | 1 to 5 | +++ (cytotoxicity ≥ 85%) | 0.001 to 0.01 | +++ (cytotoxicity ≥ 85%) | ++ (50% ≤ cytotoxicity < 85%) | ++ (50% ≤ cytotoxicity < 85%) | 1 to 5 | 1 to 5 | 1 to 5 | ++ (50% ≤ cytotoxicity < 85%) | < 0.1 | +++ (angiogenesis inhibition ≥ 80%) |
| CSc1cc(Oc2ccnc3c2OCC(=O)N3)ccc1NC(=O)Nc1cc(C(C)(C)C)nn1C [Compound 022, 1-(5-tert-butyl-2-methyl-pyrazol-3-yl)-3-[2-methylsulfanyl-4-[(3-oxo-4H-pyrido[3,2-b][1,4]oxazin-8-yl)oxy]phenyl]urea] | 1 to 5 | +++ (cytotoxicity ≥ 85%) | < 0.001 | +++ (cytotoxicity ≥ 85%) | ++ (50% ≤ cytotoxicity < 85%) | ++ (50% ≤ cytotoxicity < 85%) | 1 to 5 | 1 to 5 | 1 to 5 | ++ (50% ≤ cytotoxicity < 85%) | < 0.1 | ++ (80% > angiogenesis inhibition ≥ 50%) |
| CC(C)(C)c1cc(NC(=O)Nc2ccc(Oc3ccnc4c3CCC(=O)N4)cc2C(F)(F)F)no1 [Compound 024, 1-(5-tert-butylisoxazol-3-yl)-3-[4-[(7-oxo-6,8-dihydro-5H-1,8-naphthyridin-4-yl)oxy]-2-(trifluoromethyl)phenyl]urea] | 1 to 5 | ++ (50% ≤ cytotoxicity < 85%) | 0.001 to 0.01 | +++ (cytotoxicity ≥ 85%) | ++ (50% ≤ cytotoxicity < 85%) | ++ (50% ≤ cytotoxicity < 85%) | 1 to 5 | 1 to 5 | 1 to 5 | ++ (50% ≤ cytotoxicity < 85%) | 0.1 to 0.5 | ++ (80% > angiogenesis inhibition ≥ 50%) |
